Entries after “also recorded” stand apart in the source; their conditions may differ.

For data set [1], the target named is CYP3A4 (Homo sapiens, UniProt P08684, S18F). The data set is described as follows: Substrate binding to CYP3A4 in Nanodiscs: UV-Vis spectral titration. The conditions noted are these: human, recombinant CYP3A4 in POPC Nanodiscs.
The target in data set [2] is T1, CYP3A4 in POPC Nanodiscs (Homo sapiens, UniProt P08684, S18F). The description is as above. The conditions noted are these: for Fe^3+ Spin shift (fraction of high spin): 37 C.
The target of data set [3] is T1, CYP3A4 in POPC Nanodiscs. The data set can be described thus: Product formation. It is filed as biochemical. The conditions noted are these: binding intermediate with 1 substrate molecule bound; 37 C, pH 7.4.
The target in data set [4] is T1, CYP3A4 in POPC Nanodiscs. In kind it is biochemical. The conditions noted are these: mixture of ARVL and DND at constant molar ratio 2.9:1; one of each substrate bound.

Turning to `CC(C)c1c(C(=O)Nc2ccccc2)c(-c2ccccc2)c(-c2ccc(F)cc2)n1CC[C@@H]1C[C@@H](O)CC(=O)O1` [ARVL, atorvastatin lactone], the Kd in data set [1] was 22 µM; in data set [2] it was 1000 nM. For the same compound, the “Fe^3+ Spin shift (fraction of high spin)” value is 22 [16 – 26] % in data set [2] (binding intermediate with 1 substrate molecule bound) and 62 [56 – 72] % in data set [2] (binding intermediate with 2 substrate molecules bound). Moreover, the Product formation rate in data set [3] was 13 [9.6 – 14.7] min^−1. For the same compound, the “Rate of metabolism from the mixed intermediate” value in data set [4] amounted to 31 min⁻¹.

As for `CCCCc1oc2ccc(NS(C)(=O)=O)cc2c1C(=O)c1ccc(OCCCN(CCCC)CCCC)cc1` [DND, dronedarone], in data set [1], the Kd was found to be 3.6 µM. In addition, the Product formation rate in data set [3] is 2.5 [1.6 – 3.4] min^−1. For the same compound, the “Rate of metabolism from the mixed intermediate” value in data set [4] is reported as “No product of DND metabolism was detected; also recorded: completely inhibited”.
